Results as given in PubChem BioAssay (NCI).
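Test compounds were applied to cells in 96-well plates for 48 hours at 5 doses. Abbreviation: GI50, concentration required for 50% inhibition of growth. Definition used: TGI = concentration required for complete inhibition of growth.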

Tests used:
Assay in all cases: NCI tumour cell line growth inhibition, 48 h
HT29 colon = system: HT29 colon
SNB-19 CNS = system: SNB-19 CNS
MDA-MB-231 breast = system: MDA-MB-231 breast
HCC-2998 colon = system: HCC-2998 colon
SN12C renal = system: SN12C renal
EKVX NSCLC = system: EKVX NSCLC
SK-MEL-5 melanoma = system: SK-MEL-5 melanoma
MDA-N = system: MDA-N
BT-549 breast = system: BT-549 breast
HL-60(TB) leukemia = system: HL-60(TB) leukemia
CCRF-CEM leukemia = system: CCRF-CEM leukemia

## Nc1cc(N)c(N=Nc2cccc3c(S(=O)(=O)O)cccc23)cc1N=Nc1cc([N+](=O)[O-])ccc1O
HT29 colon
  TGI: > 100 µM
SNB-19 CNS
  TGI: > 100 µM
MDA-MB-231 breast
  TGI: > 100 µM
HCC-2998 colon
  TGI: 79.9 µM
SN12C renal
  TGI: > 100 µM
EKVX NSCLC
  TGI: > 100 µM
SK-MEL-5 melanoma
  TGI: 47.2 µM
MDA-N
  TGI: > 100 µM
BT-549 breast
  TGI: > 100 µM

## O=C1C(NS(=O)(=O)c2ccccc2)=C(N(Cc2ccccc2)Cc2ccccc2)C(=O)c2ccccc21
HT29 colon
  TGI: > 100 µM
SNB-19 CNS
  TGI: > 100 µM
MDA-MB-231 breast
  TGI: > 100 µM
HL-60(TB) leukemia
  TGI: 66.1 µM
SN12C renal
  TGI: > 100 µM
EKVX NSCLC
  TGI: > 100 µM
CCRF-CEM leukemia
  TGI: 77.4 µM
SK-MEL-5 melanoma
  TGI: > 100 µM
MDA-N
  TGI: > 100 µM
BT-549 breast
  TGI: > 100 µM

## CN(C)Cc1[nH]c2ccccc2c1C(=O)c1ccccc1
HT29 colon
  TGI: > 100 µM
SNB-19 CNS
  TGI: > 100 µM
HL-60(TB) leukemia
  TGI: > 100 µM
HCC-2998 colon
  TGI: > 100 µM
CCRF-CEM leukemia
  TGI: > 100 µM
SK-MEL-5 melanoma
  TGI: > 100 µM

## O=C1c2ccccc2C(=O)c2c(O)c(NCCNCCO)cc(O)c21
HT29 colon
  TGI: 11.5 µM
SNB-19 CNS
  TGI: 11.8 µM
HL-60(TB) leukemia
  TGI: 14.1 µM
HCC-2998 colon
  TGI: 13.7 µM
SN12C renal
  TGI: 14.9 µM
EKVX NSCLC
  TGI: 14.4 µM
CCRF-CEM leukemia
  TGI: 13.2 µM
SK-MEL-5 melanoma
  TGI: 13.1 µM

## OC1(c2ccc3ccccc3c2)c2c(c3ccccc3c3ccccc23)C2=NCCN21 (stereo unspecified)
HT29 colon
  TGI: 8.63 µM
SNB-19 CNS
  TGI: > 58.2 µM
MDA-MB-231 breast
  TGI: > 60.6 µM
HL-60(TB) leukemia
  TGI: > 100 µM
SN12C renal
  TGI: > 63.6 µM
EKVX NSCLC
  TGI: 36.3 µM
CCRF-CEM leukemia
  TGI: > 100 µM
SK-MEL-5 melanoma
  TGI: > 100 µM
MDA-N
  TGI: 4.28 µM
BT-549 breast
  TGI: > 37.3 µM

## N#Cc1c(N2CCOCC2)ncn(-c2ccc(Cl)cc2)c1=O
SNB-19 CNS
  TGI: > 100 µM
HL-60(TB) leukemia
  TGI: > 100 µM
HCC-2998 colon
  TGI: > 100 µM
SN12C renal
  TGI: > 100 µM
EKVX NSCLC
  TGI: > 100 µM
CCRF-CEM leukemia
  TGI: > 100 µM
SK-MEL-5 melanoma
  TGI: > 100 µM
MDA-N
  TGI: > 100 µM
BT-549 breast
  TGI: > 100 µM

## CCCN(CCC)C(=O)c1c(Cl)c2cccnc2n2c(C)cnc12
HT29 colon
  TGI: > 100 µM
SNB-19 CNS
  TGI: > 100 µM
MDA-MB-231 breast
  TGI: > 100 µM
HL-60(TB) leukemia
  TGI: 71.7 µM
HCC-2998 colon
  TGI: > 100 µM
SN12C renal
  TGI: > 100 µM
EKVX NSCLC
  TGI: > 100 µM
CCRF-CEM leukemia
  TGI: > 100 µM
SK-MEL-5 melanoma
  TGI: > 100 µM
MDA-N
  TGI: > 100 µM

## Cc1cc(C#N)c(Nc2ccccc2[N+](=O)[O-])s1
SNB-19 CNS
  TGI: > 100 µM
MDA-MB-231 breast
  TGI: 92.4 µM
HCC-2998 colon
  TGI: 91.1 µM
SN12C renal
  TGI: 67.7 µM
EKVX NSCLC
  TGI: 97.2 µM
CCRF-CEM leukemia
  TGI: > 100 µM
MDA-N
  TGI: 30.9 µM
BT-549 breast
  TGI: 60.5 µM

## O=C1/C(=C/c2ccc(Cl)cc2)Sc2scc(-c3cccc([N+](=O)[O-])c3)[n+]21
HT29 colon
  TGI: > 45 µM
SNB-19 CNS
  TGI: 38.9 µM
MDA-MB-231 breast
  TGI: > 32.1 µM
HCC-2998 colon
  TGI: 10.5 µM
SN12C renal
  TGI: 11.9 µM
EKVX NSCLC
  TGI: 13.9 µM
CCRF-CEM leukemia
  TGI: 1.18 µM
SK-MEL-5 melanoma
  TGI: 12.9 µM
MDA-N
  TGI: 13.8 µM
BT-549 breast
  TGI: 6.37 µM

## c1ccc(CSC(SCc2ccccc2)c2ccc3c(c2)OCO3)cc1
HT29 colon
  TGI: > 10 µM
SNB-19 CNS
  TGI: > 10 µM
MDA-MB-231 breast
  TGI: > 10 µM
HL-60(TB) leukemia
  TGI: > 10 µM
HCC-2998 colon
  TGI: > 10 µM
SN12C renal
  TGI: > 10 µM
EKVX NSCLC
  TGI: > 10 µM
CCRF-CEM leukemia
  TGI: > 10 µM
SK-MEL-5 melanoma
  TGI: > 10 µM
MDA-N
  TGI: > 10 µM

## COc1ccc(C2C(Cl)C(=O)N2NC(=O)c2ccccc2O)cc1OC (stereo unspecified)
HT29 colon
  TGI: > 100 µM
SNB-19 CNS
  TGI: > 100 µM
HL-60(TB) leukemia
  TGI: > 100 µM
SN12C renal
  TGI: > 100 µM
CCRF-CEM leukemia
  TGI: > 100 µM
SK-MEL-5 melanoma
  TGI: > 100 µM

## CCOC(=O)Oc1ccc2c(c1)c(=O)c1c(NCCCN(CC)CC)ccc3nnn2c31
HT29 colon
  TGI: 15.9 µM
SNB-19 CNS
  TGI: 19.5 µM
MDA-MB-231 breast
  TGI: 21.8 µM
HCC-2998 colon
  TGI: 21.8 µM
SN12C renal
  TGI: 19.1 µM
EKVX NSCLC
  TGI: 23 µM
CCRF-CEM leukemia
  TGI: 6.88 µM
SK-MEL-5 melanoma
  TGI: 23.2 µM
MDA-N
  TGI: 20.6 µM
BT-549 breast
  TGI: 32 µM

## COc1cc2c(cc1OCCCCN1CCN(CCCCOc3cc4c(cc3OC)C(=O)N3CCC[C@H]3C=N4)CC1)N=C[C@@H]1CCCN1C2=O
HT29 colon
  TGI: 0.656 µM
MDA-MB-231 breast
  TGI: 0.182 µM
SN12C renal
  TGI: 1.1 µM
EKVX NSCLC
  TGI: 7.85 µM
CCRF-CEM leukemia
  GI50: < 0.01 µM
  TGI: 41.6 µM
SK-MEL-5 melanoma
  TGI: 0.0476 µM
BT-549 breast
  TGI: 0.843 µM

## O=C1Nc2ccc(Br)cc2/C1=C/C(=O)c1ccccc1
HT29 colon
  TGI: 3.39 µM
SNB-19 CNS
  TGI: 37.7 µM
MDA-MB-231 breast
  TGI: 29.5 µM
HL-60(TB) leukemia
  TGI: > 29.1 µM
HCC-2998 colon
  TGI: 29 µM
SN12C renal
  TGI: 10.5 µM
EKVX NSCLC
  TGI: 28.6 µM
CCRF-CEM leukemia
  TGI: 8.36 µM
SK-MEL-5 melanoma
  TGI: 41.7 µM
BT-549 breast
  TGI: 24.6 µM

## CC1(C)N=C(Oc2ccccc2)n2nccc2N1
HT29 colon
  TGI: > 100 µM
SNB-19 CNS
  TGI: > 100 µM
HL-60(TB) leukemia
  TGI: > 100 µM
HCC-2998 colon
  TGI: > 100 µM
SN12C renal
  TGI: > 100 µM
EKVX NSCLC
  TGI: > 100 µM
CCRF-CEM leukemia
  TGI: > 100 µM
SK-MEL-5 melanoma
  TGI: > 100 µM

## COc1nc(OC)nc(Sc2ccc(Sc3ccc(Sc4nc(OC)nc(OC)n4)cc3)cc2)n1
HT29 colon
  TGI: > 100 µM
SNB-19 CNS
  TGI: > 100 µM
HL-60(TB) leukemia
  TGI: > 100 µM
HCC-2998 colon
  TGI: > 100 µM
SN12C renal
  TGI: > 100 µM
EKVX NSCLC
  TGI: > 100 µM
CCRF-CEM leukemia
  TGI: > 100 µM
SK-MEL-5 melanoma
  TGI: > 100 µM

## COC(=O)CNCC1OC2OC(C)(C)OC2C1N=[N+]=[N-] (stereo unspecified)
HT29 colon
  TGI: > 100 µM
SNB-19 CNS
  TGI: > 100 µM
HL-60(TB) leukemia
  TGI: > 100 µM
SN12C renal
  TGI: > 100 µM
EKVX NSCLC
  TGI: > 100 µM
CCRF-CEM leukemia
  TGI: > 100 µM
SK-MEL-5 melanoma
  TGI: > 100 µM
MDA-N
  TGI: > 100 µM
BT-549 breast
  TGI: > 100 µM

## N#CCN(Cc1ccccc1)[C@@H]1CCC[C@]1(O)C#Cc1ccc2c(c1)OCO2
HT29 colon
  TGI: 36.1 µM
SNB-19 CNS
  TGI: 41.5 µM
MDA-MB-231 breast
  TGI: 36.1 µM
HL-60(TB) leukemia
  TGI: 45.1 µM
HCC-2998 colon
  TGI: 31.5 µM
EKVX NSCLC
  TGI: 55.5 µM
CCRF-CEM leukemia
  TGI: 48.1 µM
SK-MEL-5 melanoma
  TGI: 30 µM
MDA-N
  TGI: 34.2 µM

## Cc1[nH]c2ccccc2c1C1=CC(=O)N(c2ccccc2)C1=O
HT29 colon
  TGI: 21.8 µM
SNB-19 CNS
  TGI: > 100 µM
MDA-MB-231 breast
  TGI: > 100 µM
HL-60(TB) leukemia
  TGI: 39 µM
HCC-2998 colon
  TGI: 7.38 µM
SN12C renal
  TGI: 86 µM
EKVX NSCLC
  TGI: 83.9 µM
CCRF-CEM leukemia
  TGI: 73.4 µM
SK-MEL-5 melanoma
  TGI: 21.9 µM
BT-549 breast
  TGI: > 100 µM

## COC1C(OC(N)=O)C(O)C(Oc2ccc3c(O)c(NC(=O)c4ccc(O)c(CC=C(C)C)c4)c(=O)oc3c2C)OC1(C)C (stereo unspecified)
HT29 colon
  TGI: > 100 µM
SNB-19 CNS
  TGI: > 100 µM
MDA-MB-231 breast
  TGI: > 100 µM
HCC-2998 colon
  TGI: > 100 µM
SN12C renal
  TGI: > 100 µM
EKVX NSCLC
  TGI: > 100 µM
CCRF-CEM leukemia
  TGI: > 100 µM
SK-MEL-5 melanoma
  TGI: > 100 µM
MDA-N
  TGI: > 100 µM
BT-549 breast
  TGI: > 100 µM

## Cc1ccc(F)c2c(=O)cc(-c3ccccc3)[nH]c12
HT29 colon
  TGI: > 100 µM
HL-60(TB) leukemia
  TGI: > 100 µM
SN12C renal
  TGI: > 100 µM
CCRF-CEM leukemia
  TGI: > 100 µM
SK-MEL-5 melanoma
  TGI: > 100 µM

## C=CCC1C2CCC(O[Si](C(C)C)(C(C)C)C(C)C)(C(C(=O)OC)C2)C1O (stereo unspecified)
HT29 colon
  TGI: > 100 µM
SNB-19 CNS
  TGI: > 100 µM
MDA-MB-231 breast
  TGI: > 100 µM
HL-60(TB) leukemia
  TGI: 36.7 µM
SN12C renal
  TGI: > 100 µM
EKVX NSCLC
  TGI: > 100 µM
CCRF-CEM leukemia
  TGI: > 100 µM
SK-MEL-5 melanoma
  TGI: > 100 µM
MDA-N
  TGI: > 100 µM

## CCOC(=O)NC(=S)NC(C)c1ccccc1 (stereo unspecified)
HT29 colon
  TGI: > 100 µM
SNB-19 CNS
  TGI: > 100 µM
MDA-MB-231 breast
  TGI: > 100 µM
HCC-2998 colon
  TGI: > 100 µM
EKVX NSCLC
  TGI: > 100 µM
CCRF-CEM leukemia
  TGI: > 100 µM
SK-MEL-5 melanoma
  TGI: > 100 µM
MDA-N
  TGI: > 100 µM
BT-549 breast
  TGI: > 100 µM
